According to patent US9833497B2, “Human originated EGF domain proteins and use of the same” (CHENGDU SOURCEBIO LIMITED-LIABILITY COMPANY, priority 2013, dated 2017):

Experiments:
Type in all cases: cell-based
Proteus vulgaris = test: MIC against Gram-negative bacteria: Proteus vulgaris; conditions: for MIC against P. vulgaris: 96-well plate, 37° C., 10 h
Summary of the method: (§1)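 Bacteria grown in LB at 37° C to McFarland 0.5, resuspended and seeded at 5×10^5 CFU/mL in 96-well plates. Purified human EGF-domain proteins two-fold serially diluted, triplicate wells; cultured at 37° C, shaking 175 rpm. MIC = lowest protein concentration with no growth.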

Enterobacter cloacae = test: MIC against Gram-negative bacteria: Enterobacter cloacae; conditions: for MIC against E. cloacae: 96-well plate, 37° C., 10 h
Summary of the method: as §1

Pseudomonas aeruginosa = test: MIC against Gram-negative bacteria: Pseudomonas aeruginosa; conditions: for MIC against P. aeruginosa: 96-well plate, 37° C., 10 h
Summary of the method: as §1

Klebsiella pneumonia = test: MIC against Gram-negative bacteria: Klebsiella pneumonia; conditions: for MIC against K. pneumonia: 96-well plate, 37° C., 10 h
Summary of the method: as §1

E. coli BL21 = test: MIC against Gram-negative bacteria: E. coli BL21; conditions: for MIC against E. coli BL21: 96-well plate, 37° C., 10 h
Summary of the method: as §1

Serratia marcescens = test: MIC against Gram-negative bacteria: Serratia marcescens; conditions: for MIC against S. marcescens: 96-well plate, 37° C., 10 h
Summary of the method: as §1

Citrobacter diversus = test: MIC against Gram-negative bacteria: Citrobacter diversus; conditions: for MIC against C. diversus: 96-well plate, 37° C., 10 h
Summary of the method: as §1

Proteus mirabilis = test: MIC against Gram-negative bacteria: Proteus mirabilis; conditions: for MIC against P. mirabilis: 96-well plate, 37° C., 10 h
Summary of the method: as §1

E. coli DH5α = test: Antibacterial activity: MIC and growth curve against E. coli DH5α in 96-well plate; conditions: minimal inhibitory concentration against E. coli DH5α; 96-well plate, 5×10^5 CFU/mL, 37° C., judged after 8 h
Summary of the method: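 MIC taken as lowest protein level with no bacterial growth, tracked by A600 every 30 min during 37 °C, 175 rpm culture. Two-fold protein series 50-12.5 μg/mL final, triplicate wells, against 5×10^5 CFU/mL of LB-washed mid-log cells.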

Moraxella catarrhalis = test: MIC against Gram-negative bacteria: Moraxella catarrhalis; conditions: for MIC against M. catarrhalis: 96-well plate, 37° C., 10 h
Summary of the method: as §1

Aeromonas hydrophila = test: MIC against Gram-negative bacteria: Aeromonas hydrophila; conditions: for MIC against A. hydrophila: 96-well plate, 37° C., 10 h
Summary of the method: as §1

[1] = Proteus vulgaris, 5×10^5 CFU/mL
[2] = Enterobacter cloacae, 5×10^5 CFU/mL
[3] = Pseudomonas aeruginosa, 5×10^5 CFU/mL
[4] = Klebsiella pneumonia, 5×10^5 CFU/mL
[5] = Serratia marcescens, 5×10^5 CFU/mL
[6] = Citrobacter diversus, 5×10^5 CFU/mL
[7] = Proteus mirabilis, 5×10^5 CFU/mL
[8] = Moraxella catarrhalis, 5×10^5 CFU/mL
[9] = Aeromonas hydrophila, 5×10^5 CFU/mL
[10] = 10 h cultivation at 37° C., 5×10^5 CFU/mL, two-fold serial dilution

For “PRT1229 (DINECETGLAKCKYKAYCRNKVGGYICSCLVKYTLFNFLAGIIDYDHPDCY; listed as Homo sapiens)”, the “MIC against P. vulgaris” value (Proteus vulgaris; [1]) was 12.5 µg/mL, the “MIC against E. cloacae” value (Enterobacter cloacae; [2]) was 25 µg/mL and the “MIC against P. aeruginosa” value (Pseudomonas aeruginosa; [3]) was 12.5 µg/mL. The “MIC against K. pneumonia” value (Klebsiella pneumonia; [4]) was 12.5 µg/mL, the “MIC against E. coli BL21” value (E. coli BL21; E. coli BL21, 5×10^5 CFU/mL) was 12.5 µg/mL and the “MIC against S. marcescens” value (Serratia marcescens; [5]) was 12.5 µg/mL. For the same substance, the “MIC against C. diversus” value (Citrobacter diversus; [6]) was 12.5 µg/mL, the “MIC against P. mirabilis” value (Proteus mirabilis; [7]) was 12.5 µg/mL and the MIC (E. coli DH5α) was 25 µg/mL. For the same substance, the “MIC against M. catarrhalis” value (Moraxella catarrhalis; [8]) was 12.5 µg/mL and the “MIC against A. hydrophila” value (Aeromonas hydrophila; [9]) was 12.5 µg/mL.

For “PRT454 (LPDQCTPNPCDRKGTQACQDLMGNFFCLCKAGWGGRLCD; listed as Homo sapiens)”, the “MIC against P. vulgaris” value (Proteus vulgaris; 5×10^5 CFU/mL) was 50 µg/mL, the “MIC against E. cloacae” value (Enterobacter cloacae; 5×10^5 CFU/mL) was 25 µg/mL and the “MIC against P. aeruginosa” value (Pseudomonas aeruginosa; 5×10^5 CFU/mL) was 25 µg/mL. For the same substance, the “MIC against K. pneumonia” value (Klebsiella pneumonia; 5×10^5 CFU/mL) was 50 µg/mL, the “MIC against E. coli BL21” value (E. coli BL21; 5×10^5 CFU/mL) was 12.5 µg/mL and the “MIC against S. marcescens” value (Serratia marcescens; 5×10^5 CFU/mL) was 12.5 µg/mL. The “MIC against C. diversus” value (Citrobacter diversus; 5×10^5 CFU/mL) was 25 µg/mL, the “MIC against P. mirabilis” value (Proteus mirabilis; 5×10^5 CFU/mL) was 12.5 µg/mL and the MIC (E. coli DH5α) was 50 µg/mL. For the same substance, the “MIC against M. catarrhalis” value (Moraxella catarrhalis; 5×10^5 CFU/mL) was 50 µg/mL and the “MIC against A. hydrophila” value (Aeromonas hydrophila; 5×10^5 CFU/mL) was 12.5 µg/mL.

“PRT823 (FGEACAQRCSCPPGAACHHVTGACRCPPGFTGSGCE; listed as Homo sapiens)” was tested, and the “MIC (μg/mL) P. vulgaris” value (Proteus vulgaris; P. vulgaris, 10 h cultivation at 37° C., 5×10^5 CFU/mL) was 12.5 µg/mL, the “MIC (μg/mL) E. cloacae” value (Enterobacter cloacae; E. cloacae, 10 h cultivation at 37° C., 5×10^5 CFU/mL) was 25 µg/mL and the “MIC (μg/mL) P. aeruginosa” value (Pseudomonas aeruginosa; P. aeruginosa, 10 h cultivation at 37° C., 5×10^5 CFU/mL) was 25 µg/mL. For the same substance, the “MIC (μg/mL) K. pneumonia” value (Klebsiella pneumonia; K. pneumonia, 10 h cultivation at 37° C., 5×10^5 CFU/mL) was 12.5 µg/mL, the “MIC (μg/mL) E. coli BL21” value (E. coli BL21; E. coli BL21, 10 h cultivation at 37° C., 5×10^5 CFU/mL) was 12.5 µg/mL and the “MIC (μg/mL) S. marcescens” value (Serratia marcescens; S. marcescens, 10 h cultivation at 37° C., 5×10^5 CFU/mL) was 50 µg/mL. The “MIC (μg/mL) C. diversus” value (Citrobacter diversus; C. diversus, 10 h cultivation at 37° C., 5×10^5 CFU/mL) was 25 µg/mL, the “MIC (μg/mL) P. mirabilis” value (Proteus mirabilis; P. mirabilis, 10 h cultivation at 37° C., 5×10^5 CFU/mL) was 25 µg/mL and the MIC (E. coli DH5α) was 25 µg/mL. The “MIC (μg/mL) M. catarrhalis” value (Moraxella catarrhalis; M. catarrhalis, 10 h cultivation at 37° C., 5×10^5 CFU/mL) was 50 µg/mL and the “MIC (μg/mL) A. hydrophila” value (Aeromonas hydrophila; A. hydrophila, 10 h cultivation at 37° C., 5×10^5 CFU/mL) was 12.5 µg/mL.

With “PRT1171 (NTNDCSPHPCYNSGTCVDGDNWYRCECAPGFAGPDCR; listed as Homo sapiens)” the “MIC P. vulgaris” value (Proteus vulgaris; [10]) was 50 µg/mL, the “MIC E. cloacae” value (Enterobacter cloacae; [10]) was 12.5 µg/mL and the “MIC P. aeruginosa” value (Pseudomonas aeruginosa; [10]) was 25 µg/mL. The “MIC K. pneumonia” value (Klebsiella pneumonia; [10]) was 12.5 µg/mL, the “MIC E. coli BL21” value (E. coli BL21; [10]) was 12.5 µg/mL and the “MIC S. marcescens” value (Serratia marcescens; [10]) was 25 µg/mL. For the same substance, the “MIC C. diversus” value (Citrobacter diversus; [10]) was 12.5 µg/mL, the “MIC P. mirabilis” value (Proteus mirabilis; [10]) was 12.5 µg/mL and the MIC (E. coli DH5α) was 12.5 µg/mL. For the same substance, the “MIC M. catarrhalis” value (Moraxella catarrhalis; [10]) was 50 µg/mL and the “MIC A. hydrophila” value (Aeromonas hydrophila; [10]) was 12.5 µg/mL.

“PRT984 (SNASCAAAPCLHGGSCRPAPLAPFFRCACAQGWTGPRCE; listed as Homo sapiens)” was tested, and the MIC (Proteus vulgaris; P. vulgaris, 10 h cultivation at 37° C.) was 25 µg/mL, the MIC (Enterobacter cloacae; E. cloacae, 10 h cultivation at 37° C.) was 25 µg/mL and the MIC (Pseudomonas aeruginosa; P. aeruginosa, 10 h cultivation at 37° C.) was 25 µg/mL. It also gave an MIC (Klebsiella pneumonia; K. pneumonia, 10 h cultivation at 37° C.) of 50 µg/mL, an MIC (E. coli BL21; E. coli BL21, 10 h cultivation at 37° C.) of 12.5 µg/mL and an MIC (Serratia marcescens; S. marcescens, 10 h cultivation at 37° C.) of 12.5 µg/mL. For the same substance, the MIC (Citrobacter diversus; C. diversus, 10 h cultivation at 37° C.) was 12.5 µg/mL, the MIC (Proteus mirabilis; P. mirabilis, 10 h cultivation at 37° C.) was 50 µg/mL and the MIC (E. coli DH5α) was 50 µg/mL. The MIC (Moraxella catarrhalis; M. catarrhalis, 10 h cultivation at 37° C.) was 12.5 µg/mL and the MIC (Aeromonas hydrophila; A. hydrophila, 10 h cultivation at 37° C.) was 12.5 µg/mL.

For “PRT1336 (DCNQCPGGFSNPCSGNGQCADSLGGNGTCICEEGFQGSQCQ; listed as Homo sapiens)”, the “MIC against P. vulgaris” value (Proteus vulgaris; [1]) was 12.5 µg/mL, the “MIC against E. cloacae” value (Enterobacter cloacae; [2]) was 25 µg/mL and the “MIC against P. aeruginosa” value (Pseudomonas aeruginosa; [3]) was 12.5 µg/mL. The “MIC against K. pneumonia” value (Klebsiella pneumonia; [4]) was 50 µg/mL, the “MIC against E. coli BL21” value (E. coli BL21; E. coli BL21, 5×10^5 CFU/mL) was 50 µg/mL and the “MIC against S. marcescens” value (Serratia marcescens; [5]) was 50 µg/mL. For the same substance, the “MIC against C. diversus” value (Citrobacter diversus; [6]) was 50 µg/mL, the “MIC against P. mirabilis” value (Proteus mirabilis; [7]) was 50 µg/mL and the MIC (E. coli DH5α) was 12.5 µg/mL. The “MIC against M. catarrhalis” value (Moraxella catarrhalis; [8]) was 12.5 µg/mL and the “MIC against A. hydrophila” value (Aeromonas hydrophila; [9]) was 12.5 µg/mL.

In the case of “PRT548 (CPCPLSVPSNNFAEGCVLRGGRTQCLCKPGYAGASCERCAPGFFGNPLVLGSSCQP; listed as Homo sapiens)”, the “MIC against P. vulgaris” value (Proteus vulgaris; 5×10^5 CFU/mL) is reported as 25 µg/mL, the “MIC against E. cloacae” value (Enterobacter cloacae; 5×10^5 CFU/mL) is reported as 12.5 µg/mL and the “MIC against P. aeruginosa” value (Pseudomonas aeruginosa; 5×10^5 CFU/mL) is reported as 50 µg/mL. The “MIC against K. pneumonia” value (Klebsiella pneumonia; 5×10^5 CFU/mL) was 25 µg/mL, the “MIC against E. coli BL21” value (E. coli BL21; 5×10^5 CFU/mL) was 25 µg/mL and the “MIC against S. marcescens” value (Serratia marcescens; 5×10^5 CFU/mL) was 50 µg/mL. For the same substance, the “MIC against C. diversus” value (Citrobacter diversus; 5×10^5 CFU/mL) was 50 µg/mL, the “MIC against P. mirabilis” value (Proteus mirabilis; 5×10^5 CFU/mL) was 12.5 µg/mL and the MIC (E. coli DH5α) was 12.5 µg/mL. The “MIC against M. catarrhalis” value (Moraxella catarrhalis; 5×10^5 CFU/mL) was 25 µg/mL and the “MIC against A. hydrophila” value (Aeromonas hydrophila; 5×10^5 CFU/mL) was 25 µg/mL.
